TGI data for 15 molecules are collected here from PubChem BioAssay (NCI).

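48-hour exposure; five concentrations; linearly interpolated endpoints. At the TGI there is no net growth.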 Bounds are passed on as bounds.

Holding throughout (test): DTP human tumour cell line panel, 48 h
Experiment [1] deals with BT-549 breast.
Experiment [2] relates to MALME-3M melanoma.
Experiment [3] relates to MCF7 breast.
Experiment [4] has as its system NCI-H23 lung.
The test system of experiment [5] is NCI-H460 lung.
The test system of experiment [6] is SF-295 CNS.
The subject of experiment [7] is SK-MEL-5 melanoma.
Experiment [8] concerns SNB-75 CNS.
Experiment [9] has as its system T-47D breast.
Experiment [10] relates to K-562 leukemia.

In the case of `Cc1ccc(NC(=O)CC(=O)n2nc(C)c(N=Nc3cccc(C)c3)c2C)cc1`, the TGI in experiment [1], in experiment [2], in experiment [3], in experiment [4], in [5] and in experiment [6] was above 100 µM throughout. Further, the TGI in experiment [7] is above 100 µM; in [8], 62.3 µM; in experiment [9] it was above 100 µM.
Regarding `Cc1c(O)c(=O)ccn1CCc1ccc(O)cc1`, the TGI in experiment [1] is above 100 µM; in experiment [10], above 100 µM; in experiment [2] it was 65.8 µM; in [3], 58.2 µM; in [4], above 100 µM; in [5], 52.9 µM. Moreover, the concentration for total growth inhibition (TGI) in [6] was above 100 µM; in experiment [7], 51.7 µM; in [9] it was above 100 µM.
`CCOC(=O)Cn1c(=O)c(C)cn(COCCO)c1=O`: the TGI in [1], in experiment [10], in experiment [2], in experiment [3], in experiment [4] and in experiment [5] was above 100 µM each time. For the same molecule, the TGI in [7], in experiment [8] and in experiment [9] was above 100 µM each time.
Regarding `COC(=O)c1cc(/C=C\c2cc(OC)ccc2OC)ccc1OC`, the TGI in experiment [1] was above 100 µM; in experiment [10], 86 µM; in [3] it was 84.4 µM; in [4], above 100 µM; in [5] it was above 100 µM; in experiment [6] it was above 100 µM. Also, the TGI is 34.5 µM in [7] and 52.1 µM in [9].
Regarding `O=C(Nc1ccc(Cl)cc1)c1cc(S(=O)(=O)Nc2n[nH]c(=O)n2-c2ccccc2)c(S)cc1Cl`, the total growth inhibition concentration (TGI) in [1], in experiment [2], in experiment [3], in experiment [4], in experiment [5] and in experiment [6] was above 100 µM each time. In addition, the concentration for total growth inhibition (TGI) in experiment [7] and in experiment [9] was above 100 µM each time.
Turning to `C(#Cc1ccccc1)SC1=C(c2ccccc2)S/C(=C(\SC#Cc2ccccc2)c2ccccc2)S1`, the TGI in experiment [1], in experiment [10], in experiment [3], in [4], in experiment [5] and in experiment [6] was above 100 µM in each case. Besides, the TGI in experiment [7], in experiment [8] and in [9] was above 100 µM throughout.
On to `CC1(C)CC(=O)C2=C(C1)OC1(CC2c2ccc(Cl)cc2)CC(c2ccc(Cl)cc2)C2=C(CC(C)(C)CC2=O)O1` (stereo unspecified), for which the total growth inhibition concentration (TGI) is 50.6 µM in experiment [1]; above 51.3 µM in experiment [10]; 30.1 µM in [2]; above 100 µM in experiment [3]; 34.9 µM in experiment [4]; above 65.1 µM in experiment [5]. Moreover, the TGI was above 53.2 µM in [6], 31.4 µM in [7] and 37.1 µM in experiment [8].
`O=S(=O)(O)c1ccc2c(N=Nc3ccc(Sc4ccc(N=Nc5c(O)ccc6cc(S(=O)(=O)O)ccc56)cc4)cc3)c(O)ccc2c1`: the concentration for total growth inhibition (TGI) in experiment [1], in experiment [10], in experiment [2], in experiment [3], in [4] and in experiment [5] was above 100 µM each time. In addition, the TGI in [6], in experiment [7] and in [9] was above 100 µM throughout.
For the molecule `COc1ccc(CNc2nc3ccccc3nc2C(=O)O)cc1`, the TGI in experiment [1], in experiment [10], in experiment [3], in experiment [4], in [5] and in [6] was above 100 µM each time. For the same molecule, the TGI in experiment [7], in experiment [8] and in experiment [9] was above 100 µM in each case.
For the molecule `C=CCNC(=S)/N=C/C(C(=O)Nc1ccccc1C)=C(\C)O`, the total growth inhibition concentration (TGI) in experiment [1], in experiment [10], in experiment [3], in experiment [4], in experiment [5] and in experiment [6] was above 100 µM throughout. Besides, the total growth inhibition concentration (TGI) in experiment [7] and in [9] was above 100 µM each time.
`O=C(N/N=C\c1ccc([N+](=O)[O-])s1)c1ccncc1`: the TGI worked out at 27.2 µM in experiment [1]; 23.3 µM in [2]; 9.96 µM in [3]; 38.4 µM in experiment [4]; 33.1 µM in [5]; 44.5 µM in [6]. In addition, the TGI in [7] is 12.8 µM; in experiment [8] it was above 100 µM; in experiment [9], 48.4 µM.
Regarding `Cc1ccc(/C=C2\N=C(N3CCCC(CO)C3)NC2=O)cc1` (stereo unspecified), the total growth inhibition concentration (TGI) in experiment [1], in experiment [10], in [2], in [3], in experiment [4] and in experiment [6] was above 100 µM throughout. The concentration for total growth inhibition (TGI) in experiment [7], in experiment [8] and in experiment [9] was above 100 µM throughout.
`O=C(O)c1ccc(N/C(=C(/C(Cl)=C(Cl)Cl)[N+](=O)[O-])n2nnc3ccccc32)cc1`: the concentration for total growth inhibition (TGI) in experiment [1], in [10], in [2], in experiment [3], in [4] and in [5] was above 100 µM each time. Besides, the TGI in experiment [6] and in [9] was above 100 µM each time.
In the case of `O=C1c2cc([N+](=O)[O-])sc2C(=O)c2c([N+](=O)[O-])csc21`, the total growth inhibition concentration (TGI) was 1.93 µM in experiment [1]; 0.399 µM in [10]; 0.753 µM in experiment [2]; 2.05 µM in experiment [4]; 3.5 µM in [5]; 2.32 µM in experiment [6]. Moreover, the TGI stood at 0.313 µM in [7], 3.18 µM in experiment [8] and 4.09 µM in experiment [9].
In the case of `O=C1CC(c2ccccc2)S(=O)c2ccccc2N1` (stereo unspecified), the TGI in experiment [1], in [10], in experiment [2], in experiment [3], in [4] and in experiment [5] was above 100 µM each time. The total growth inhibition concentration (TGI) in experiment [7], in [8] and in experiment [9] was above 100 µM in each case.
